This note sets out measurements from US10913738B2 (BRISTOL-MYERS SQUIBB COMPANY, priority 2017, dated 2021).

Experiment [1] has as its target T1, His-GST-TVMV-hRIPK1(1-324) (Homo sapiens, UniProt Q13546).
T1 construct: The coding region of human RIPK1(1-324) flanked by NdeI site at 5′ end; made in house; host or cells: Spodoptera frugiperda (Sf9) insect cells, baculovirus
T1 sequence (Q13546 1-324): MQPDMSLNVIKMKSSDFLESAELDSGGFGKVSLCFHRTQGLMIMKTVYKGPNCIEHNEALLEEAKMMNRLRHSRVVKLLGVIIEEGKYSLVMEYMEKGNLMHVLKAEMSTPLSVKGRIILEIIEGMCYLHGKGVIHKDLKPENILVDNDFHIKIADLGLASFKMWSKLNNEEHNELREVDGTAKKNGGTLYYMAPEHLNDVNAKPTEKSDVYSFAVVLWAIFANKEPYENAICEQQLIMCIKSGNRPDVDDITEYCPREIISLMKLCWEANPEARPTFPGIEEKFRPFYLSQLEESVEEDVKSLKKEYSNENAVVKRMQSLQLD
The experiment is described as follows: RIPK1 HTRF Binding Assay. On the technique in general: TR-FRET usually uses a lanthanide donor and a delayed reading to cut background.

Experiment [2] deals with MLKL phosphorylation in HT29-L23 human colorectal adenocarcinoma cells. The experiment is described as follows: MLKL Phosphorylation High-Content Assay. The class given is cell-based. The conditions noted are these: Homo sapiens. An outline of the steps: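 Cells incubated six hours at 37° C., then phospho-MLKL (S358) immunostained overnight at 4° C. and imaged by high-content microscopy. Phosphorylation quantified as mean circ-ring average intensity ratio; IC50 and Ymax from 4-parameter logistic fits.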

Where [3] appears, read: x marks IC50 class <20 nM, read-out: RIPK1 HTRF binding <20 nM.
The mark [4] stands for this setting: x marks IC50 class <20 nM, read-out: pMLKL cell activity <20 nM.
Setting [5] is: x marks IC50 class 20-200 nM, read-out: pMLKL cell activity 20-200 nM.
Where [6] appears, read: x marks IC50 class 20-200 nM, read-out: RIPK1 HTRF binding 20-200 nM.
Setting [7] is: x marks IC50 class >200 nM, read-out: pMLKL cell activity >200 nM.

Molecules are shown by their SMILES. Read-outs that look alike come from different tables or passages of the source. Where only a bound is given, the exact number is not on record here.

In the case of `[2H]C([2H])(Oc1c(F)cc(F)cc1CNC(=O)c1cc(-c2ccn3nc(N)nc3c2)c(C)nc1C)C1CC1` [Example 287, 5-(2-amino-[1,2,4]triazolo[1,5-a]pyridin-7-yl)-N-(2-(cyclopropylmethoxy-d2)-3,5-difluorobenzyl)-2,6-dimethylnicotinamide], the IC50 in experiment [1] (setting [3]) and in experiment [2] (setting [4]) was < 0.02 µM throughout.
Consider `Cc1cnc(-c2ccn3nc(N)nc3c2)cc1C(=O)NCc1cc(OC(F)(F)F)ccc1F` [Example 394, 2-(2-amino-[1,2,4]triazolo[1,5-a]pyridin-7-yl)-N-(2-fluoro-5-(trifluoromethoxy)benzyl)-5-methylisonicotinamide], for which the IC50 in experiment [1] (setting [3]) was < 0.02 µM; in experiment [2] (setting [5]), 0.02 to 0.2 µM.
Turning to `COc1ncc(-c2ccn3nc(N)nc3c2)cc1C(=O)NCCC(O)c1ccc(F)cc1` (single isomer, unassigned) [Example 71-1, 5-(2-Amino-[1,2,4]triazolo[1,5-a]pyridin-7-yl)-N-(3-(4-fluorophenyl)-3-hydroxypropyl)-2-methoxynicotinamide], the IC50 in experiment [1] (setting [6]) and in experiment [2] (setting [5]) was 0.02 to 0.2 µM in each case.
For `COc1nc(C)c(-c2ccn3nc(N)nc3c2)cc1C(=O)NCCC(C)c1ccccc1` (stereo not shown) [Example 218, 5-{2-amino-[1,2,4]triazolo[1,5-a]pyridin-7-yl}-2-methoxy-6-methyl-N-(3-phenylbutyl)pyridine-3-carboxamide], the IC50 in experiment [1] (setting [3]) and in experiment [2] (setting [4]) was < 0.02 µM each time.
Consider `[2H]C([2H])([2H])Oc1ncc(-c2ccn3nc(N)nc3c2)cc1C(=O)NC(C)c1ccccc1OC(F)(F)F` (single isomer, unassigned) [Example 95-1, 5-{2-amino-[1,2,4]triazolo[1,5-a]pyridin-7-yl}-2-(deutero)methoxy-N-{1-[2-(trifluoromethoxy)phenyl]ethyl}pyridine-3-carboxamide], for which the IC50 in experiment [1] (x marks IC50 class >200 nM, read-out: RIPK1 HTRF binding >200 nM) is > 0.2 µM; in experiment [2] (setting [7]), > 0.2 µM.
As for `Nc1nc2cc(-c3cnc(Cl)c(C(=O)NCc4cc(OC(F)(F)F)ccc4F)c3)ccn2n1` [Example 166, 5-{2-amino-[1,2,4]triazolo[1,5-a]pyridin-7-y1}-2-chloro-N-{[2-fluoro-5-(trifluoromethoxy)phenyl]methyl}pyridine-3-carboxamide], the IC50 is 0.02 to 0.2 µM in experiment [1] (setting [6]) and > 0.2 µM in experiment [2] (setting [7]).
With `COc1ncc(-c2ccn3nc(N)nc3c2)cc1C(=O)NCc1ccccc1-c1ccccc1` [Example 106, 5-{2-amino-[1,2,4]triazolo[1,5-a]pyridin-7-yl}-N-({[1,1′-biphenyl]-2-yl}methyl)-2-methoxypyridine-3-carboxamide], the IC50 in experiment [1] (setting [3]) and in experiment [2] (setting [4]) was < 0.02 µM throughout.
`COc1nc(C)c(-c2ccn3nc(N)nc3c2)cc1C(=O)NCCc1ccccc1OC(F)(F)F` [Example 194, 5-{2-amino-[1,2,4]triazolo[1,5-a]pyridin-7-yl}-2-methoxy-6-methyl-N-{2-[2-(trifluoromethoxy)phenyl]ethyl}pyridine-3-carboxamide]: the IC50 is 0.02 to 0.2 µM in experiment [1] (setting [6]) and > 0.2 µM in experiment [2] (setting [7]).
Regarding `CCOc1ncc(-c2ccn3nc(N)nc3c2)cc1C(=O)NCCC(C)c1ccccc1` (stereo not shown) [Example 280, 5-{2-amino-[1,2,4]triazolo[1,5-a]pyridin-7-yl}-2-ethoxy-N-(3-phenylbutyl)pyridine-3-carboxamide], the IC50 was < 0.02 µM in experiment [1] (setting [3]) and 0.02 to 0.2 µM in experiment [2] (setting [5]).
For the molecule `COc1ncc(-c2ccn3nc(N)nc3c2)cc1C(=O)NCc1cc(F)ccc1OC1CCCC1` [Example 142, 5-{2-amino-[1,2,4]triazolo[1,5-a]pyridin-7-yl}-N-{[2-(cyclopentyloxy)-5-fluorophenyl]methyl}-2-methoxypyridine-3-carboxamide], the IC50 in experiment [1] (setting [3]) and in experiment [2] (setting [4]) was < 0.02 µM each time.
With `COc1nc(C)c(-c2ccn3nc(N)nc3c2)cc1C(=O)NCc1cc(F)ccc1OC(F)(F)F` [Example 329, 5-(2-amino-[1,2,4]triazolo[1,5-a]pyridin-7-yl)-N-(5-fluoro-2-(trifluoromethoxy)benzyl)-2-methoxy-6-methylnicotinamide], the values for the IC50 in experiment [1] (setting [3]) and in experiment [2] (setting [5]) were < 0.02 µM and 0.02 to 0.2 µM, respectively.
